Laboratory results: patent US20060229236A1, “Cyclic tetrapeptide compound and use thereof” (FUJISAWA PHARMACEUTICAL Co. LTD., priority 2001, published 2006)
Square brackets hold non-standard residues; d marks the D form. Peptide text beside a SMILES is read from it. Aoda(9S-OH) = C[C@H](O)C(=O)CCCCC[C@H](N)C(=O)O; Phe(4-CN) = N#Cc1ccc(C[C@H](N)C(=O)O)cc1; Iva = CC[C@](C)(N)C(=O)O

Key:
[1] = system: splenic cells of Lewis rats; assay: Test 2: Determination of T-cell growth inhibitor activity (T lymphocyte blastogenesis test); assay type: cell-based; settings: Lewis rat splenic cells, Concanavalin A (1 μg/ml), 72 hours, AlamarBlue Assay, read-out: Test 2: T-cell growth inhibitory activity IC50
Procedure: Test 2: Determination of T-Cell Growth Inhibitor Activity
The T lymphocyte blastogenesis test was performed in microtiter plates with each well containing 1.5×10^5 splenic cells of Lewis rats in 0.1 ml RPMI-1640 medium supplemented with 10% fetal bovine serum (FBS), […] 2-mercaptoethanol, penicilln (100 units/ml) and streptomycin (100 μg/ml), to which Concanavalin A (1 μg/ml) was added. The cells were incubated at 37° C. in a humidified atmosphere of 5% CO2 for 72 hours. After the culture period, suppressive activities of the test compounds in T lymphocyte blastogenesis were quantified by AlamarBlue (trademark) Assay. The test samples were dissolved in DMSO and further diluted with RPMI-1640 medium and added to the culture. The activities of the test compounds were expressed as IC50.

[2] = target: T1, human histone deacetylase; assay: Test 1: Determination of histone deacetylase inhibitor activity; assay type: biochemical; settings: partially purified human histone deacetylase from Jurkat cells; [3H] acetyl-labeled histones; 25° C., 30 minutes; read-out: Test 1: HDAC inhibitory activity IC50
T1 construct: The human histone deacetylase was partially purified from human T cell leukemia Jurkat cells
Procedure: Test 1: Determination of Histone Deacetylase Inhibitor Activity
The partial purification of human histone deacetylase, the preparation of [^3H] acetyl histones, and the assay for histone deacetylase activity were performed basically according to the method as proposed by Yoshida et al. as follows.
Partial Purification of Human Histone Deacetylase
The human histone deacetylase was partially purified from human T cell leukemia Jurkat cells. Jurkat cells (5×10^8 cells) were suspended in 40 ml of the HDA buffer consisting of 15 mM potassium phosphate, pH 7.5, 5% glycerol and 0.2 mM EDTA. After homogenization, nuclei were collected by centrifugation (35,000×g, 10 min) and homogenized in 20 ml of the same buffer supplemented with 1 M (NH4)2SO4. The viscous homogenate was sonicated and clarified by centrifugation (35,000×g, 10 min), and the deacetylase was precipitated by raising the concentration of (NH4)2SO4 to 3.5 M. The precipitated protein was dissolved in 10 ml of the HDA buffer and dialyzed against 4 liters of the same buffer. The dialyzate was then loaded onto a DEAE-cellulose (Whatman DE52) column (25×85 mm) equilibrated with the same buffer and eluted with 300 ml of a linear gradient (0-0.6 M) of NaCl. A single peak of histone deacetylase activity appeared between 0.3 and 0.4 M NaCl.
Preparation of [^3H] Acetyl Histone
To obtain [^3H] acetyl-labeled histone as the substrate for the histone deacetylase assay, 1×10^8 cells of Jurkat in 20 ml of RPMI-1640 medium (supplemented with 10% FBS, penicillin (50 units/ml) and streptomycin (50 μg/ml)) were incubated with 300 MBq [^3H] sodium acetate in the presence of 5 mM sodium butyrate for 30 minutes in 5% CO2-95% air atmosphere at 37° C. in a 75 cm^2 flask, harvested into a centrifuge tube (50 ml), collected by centrifugation at 1000 rpm for 10 minutes, and washed once with phosphate-buffered saline. The washed cells were suspended in 15 ml of ice-cold lysis buffer (10 mM Tris-HCl, 50 mM sodium bisulfite, 1% Triton X-100, 10 mM MgCl2, 8.6% sucrose, pH 6.5). After Dounce homogenization (30 stroke), the nuclei were collected by centrifugation at 1000 rpm for 10 minutes, washed 3 times with 15 ml of the lysis buffer, and once with 15 ml of ice-cooled washing buffer (10 mM Tris-HCl, 13 mM EDTA, pH 7.4) successively. The pellet was suspended in 6 ml of ice-cooled water using a mixer, and 68 μl of H2SO4 was added to the suspension to give a concentration of 0.4 N. After incubation at 4° C. for 1 hour, the suspension was centrifuged for 5 minutes at 15,000 rpm, and the supernatant was taken and mixed with 60 ml of acetone. After overnight incubation at −20° C., the coagulated material was collected by microcentrifugation, air-dried, and stored at −80° C.
Assay for Histone Deacetylase Activity
For the standard assay, 10 μl of [^3H] acetyl-labeled histones were added to 90 μl of the enzyme fraction, and the mixture was incubated at 25° C. for 30 minutes. The reaction was stopped by addition of 10 μl of HCl. The released [^3H] acetic acid was extracted with 1 ml of ethyl acetate, and 0.9 ml of the solvent layer was taken into 10 ml of toluene scintillation solution for determination of radioactivity.

[3] = system: MCP-1 production by activated THP-1 cells; assay: Test 4: MCP-1 production by activated THP-1 cells (MCP-1 ELISA); assay type: cell-based, human; settings: PMA 50 ng/mL 16 hours, compound 9 hr, at doses up to 1 nM, FIG. 3
Procedure: Test 4: Effect of HDAC Inhibitor on MCP-1 Production by Activated THP-1 Cells For the measurement of MCP-1 level by ELISA, 1×10^6 THP-1 cells (JCRB0112, JCRB) were plated in 6-well tissue culture plates. The cells were cultured in RPMI1640 (SIGMA) supplemented with 10% FBS (MOREGATE) in the presence of PMA (SIGMA, 50 ng/mL) for 16 hours at 37° C., 5% CO2. After incubation, the medium was changed to RPMI1640 supplemented with 2% FBS and various concentrations of Compound E138 or FK506 were added. The cells were further cultured for 9 hr and the amount of MCP-1 protein secreted by activated THP-1 cells into the medium was determined by […] Immuno assay System human MCP-1 (Genzyme Techne) according to the manufacturer's instructions.

[4] = system: TNFα induced NF-κB activation; assay: Test 3: NF-κB reporter gene assay in TNFα-stimulated HEL cells; assay type: cell-based; settings: HEL cells transfected with pNFκB-TA-Luc, TNFα (10 ng/ml); at doses up to 3 nM; FIG. 2
Procedure: Test 3: Effect of HDAC Inhibitor on TNFα Induced NF-κB Activation 8.75×10^6 HEL cells (JCRB0062, JCRB) were transfected with 10 μg of pNFκB-TA-Luc (Clontech, as shown in FIG. 1) by electroporation at 1750 V and 10 μF with Gene Pulser II (BIO-RAD). The cells were resuspended in 2 ml of RPMI1640 (SIGMA) supplemented with 10% FBS (MOREGATE) and aliquated 50 μl each well in 96-well tissue culture plates. After 5 hr culture at 37° C., 5% CO2, for cell function recovery, the cells were cultured in the presence or absence of TNFα (10 ng/ml) for 4 hr. TNFα stimulated cells were incubated with Compound E138 or FK506 (commercial available immunosuppresive agent, also referred as Tacrolimus) at appropriate concentrations for 1 hour prior to stimulation. For the NF-κB reporter gene assay, the transfected cells were lysed and assayed for luciferase activity with the Bright-glo Luciferase Assay System (Promega) according to the manufacturer's instructions.

[5] = system: IL-2 mRNA expression in activated Jurkat cells; assay: IL-2 mRNA expression in activated Jurkat cells; assay type: cell-based, human; settings: at 1 nM

IC50 [2] [nM] | Structure (SMILES) | IC50 [1] [nM] | effect on MCP-1 production by activated THP-1 cells [3] | effect on TNFα induced NF-κB activation [4] | inhibition of IL-2 mRNA expression [5]
< 100 | CC[C@]1(C)NC(=O)[C@H](CCCCCC(=O)[C@@H](C)O)NC(=O)[C@H]2CCCN2C(=O)[C@H](Cc2ccc(OCc3ccccc3)cc2)NC1=O [Compound E6] | < 50 | – | – | –
< 100 | CC[C@]1(C)NC(=O)[C@H](CCCCCC(=O)[C@@H](C)O)NC(=O)[C@H]2CCCN2C(=O)[C@H](Cc2ccc(O)cc2)NC1=O [Compound E8] | < 50 | – | – | –
< 100 | CC[C@]1(C)NC(=O)[C@H](CCCCCC(=O)[C@@H](C)O)NC(=O)[C@H]2CCCN2C(=O)[C@H](Cc2ccc(F)cc2)NC1=O [Compound E17] | < 50 | – | – | –
< 100 | CC[C@]1(C)NC(=O)[C@H](CCCCCC(=O)[C@H](C)O)NC(=O)[C@H]2CCCN2C(=O)[C@H](Cc2ccc(C#N)cc2)NC1=O [Compound E23] (cyclo([Iva][Phe(4-CN)][dP][Aoda(9S-OH)])) | < 50 | – | – | –
< 100 | CCOc1ccc(C[C@@H]2NC(=O)[C@](C)(CC)NC(=O)[C@H](CCCCCC(=O)[C@@H](C)O)NC(=O)[C@H]3CCCN3C2=O)cc1 [Compound E26] | < 50 | – | – | –
< 100 | CC[C@]1(C)NC(=O)[C@H](CCCCCC(=O)[C@@H](C)O)NC(=O)[C@H]2CCCN2C(=O)[C@H](Cc2ccccc2F)NC1=O [Compound E33] | < 50 | – | – | –
< 100 | CC[C@@H](O)C(=O)CCCCC[C@@H]1NC(=O)[C@H]2CCCN2C(=O)[C@H](Cc2ccccc2F)NC(=O)[C@](C)(CC)NC1=O [Compound E35] | < 50 | – | – | –
< 100 | CC[C@]1(C)NC(=O)[C@H](CCCCCC(=O)[C@@H](C)O)NC(=O)[C@H]2CCCN2C(=O)[C@H](Cc2ccc(Cl)cc2)NC1=O [Compound E38] | < 50 | – | – | –
< 100 | CCC1(CC)NC(=O)[C@H](CCCCCC(=O)[C@@H](C)O)NC(=O)[C@H]2CCCN2C(=O)[C@H](Cc2ccccc2)NC1=O [Compound E41] | < 50 | – | – | –
< 100 | CC[C@@H](O)C(=O)/C=C/CCC[C@@H]1NC(=O)[C@H]2CCCN2C(=O)[C@H](Cc2ccccc2)NC(=O)[C@](C)(CC)NC1=O [Compound E48] | < 50 | – | – | –
– | C=CC[C@@H]1/C=C(\C)C[C@H](C)C[C@H](OC)[C@H]2O[C@@](O)(C(=O)C(=O)N3CCCC[C@H]3C(=O)O[C@H](/C(C)=C/[C@@H]3CC[C@@H](O)[C@H](OC)C3)[C@H](C)[C@@H](O)CC1=O)[C@H](C)C[C@@H]2OC [FK506, Tacrolimus] | – | no direct effect | no direct effect | almost completely inhibits

Structure (SMILES) | IC50 [2] [nM] | IC50 [1] [nM] | effect on MCP-1 production by activated THP-1 cells [3] | effect on TNFα induced NF-κB activation [4] | inhibition of IL-2 mRNA expression [5]
CC[C@]1(C)NC(=O)[C@H](CCCCCC(=O)[C@@H](C)O)NC(=O)[C@H]2CCCN2C(=O)[C@H](Cc2ccc(OC)cc2)NC1=O [Compound E13] | < 100 | < 50 | – | – | –
